Experiments:
HCT-116/VM46 = test: Cytotoxicity against human HCT116/VM46 cells assessed as inhibition in cell growth; assay type: functional, cell-based
HCT-116 = test: Cytotoxicity against human HCT-116 cells assessed as inhibition in cell growth; assay type: functional, cell-based
MCF7 = test: Cytotoxicity against human MCF7 cells incubated for 7 to 10 days by MTS assay; assay type: functional; settings: time 7-10 day
L1210 = test: Cytotoxicity against mouse L1210 cells assessed as inhibition in cell growth; assay type: functional, cell-based
[1] = Cytotoxicity against human Jurkat-TAg cells assessed as cell growth inhibition measured after 48 hrs; assay type: functional, cell-based
[2] = Inhibition of pre-mRNA splicing in human HeLa nuclear extract in presence of ATP; assay type: cell-free
HeLa = test: Potency index, ratio of test compound IC50 to Spliceostatin A IC50 for inhibition of pre-mRNA splicing in human HeLa nuclear extract in presence of ATP
[3] = Cytotoxicity against HEK293T cells assessed as inhibition in cell growth; assay type: toxicity, cell-based, HEK-293T; settings: human
MES-SA/Dx5 = test: Cytotoxicity against human MES-SA/Dx5 cells assessed as inhibition in cell growth; assay type: functional, cell-based
MES-SA = test: Cytotoxicity against human MES-SA cells assessed as inhibition in cell growth; assay type: functional, cell-based

Compound | IC50 (HCT-116/VM46) [nM] | IC50 (HCT-116) [nM] | IC50 (L1210) [nM] | IC50 [1] [nM] | IC50 [2] [nM] | other results
CC(=O)O[C@@H](C)/C=C\C(=O)N[C@@H]1C[C@H](C)[C@H](C/C=C(C)/C=C/[C@H]2OC(C)(C)C[C@@]3(CO3)[C@@H]2O)O[C@@H]1C | 0.51 | 0.56 | 0.44 |  |  | GI50 (MCF7): 0.0102 nM
CC(=O)O[C@@H](C)/C=C\C(=O)N[C@@H]1C[C@H](C)[C@H](C/C=C(C)/C=C/[C@H]2O[C@@H](C)C[C@@]3(CO3)[C@@H]2O)O[C@@H]1C |  |  |  | 1.6 |  | 
CC(=O)O[C@@H](C)/C=C\C(=O)N[C@@H]1C[C@H](C)[C@H](C/C=C(C)/C=C/[C@H]2O[C@](C)(O)CC3(CC3)[C@@H]2O)O[C@@H]1C |  |  |  | > 4000 |  | 
CC(/C=C/[C@H]1OC(C)(C)C[C@@]2(CO2)[C@@H]1O)=C\C[C@@H]1O[C@H](C)[C@H](NC(=O)/C=C\[C@H](C)OC(=O)N2CCCCC2)C[C@@H]1C | 0.59 | 0.68 | 0.6 |  |  | 
CC(/C=C/[C@H]1OC(C)(C)C[C@@]2(CO2)[C@@H]1O)=C\C[C@@H]1O[C@H](C)[C@H](NC(=O)/C=C\[C@H](C)OC(=O)N2CCOCC2)C[C@@H]1C | 0.55 | 0.49 | 7.8 |  |  | 
CC(=O)O[C@@H](C)/C=C\C(=O)N[C@@H]1C[C@H](C)[C@H](C/C=C(C)/C=C/[C@H]2OC3(CC3)C[C@@]3(CO3)[C@@H]2O)O[C@@H]1C |  |  |  |  | 20 | Ratio IC50 (HeLa): 2
COC(=O)C[C@@H]1C[C@@]2(CO2)[C@H](O)[C@@H](/C=C/C(C)=C/C[C@@H]2O[C@H](C)[C@H](NC(=O)/C=C\[C@H](C)OC(C)=O)C[C@@H]2C)O1 |  |  |  |  | 400 | IC50 [3]: 0.36 nM; IC50 (MES-SA/Dx5): 3.6 nM; IC50 (MES-SA): 0.32 nM
CC(=O)N[C@@H]1C[C@H](C)[C@H](C/C=C(C)/C=C/[C@H]2O[C@](C)(O)C[C@@]3(CO3)[C@@H]2O)O[C@@H]1C |  |  |  | 1700 |  | 
CC(/C=C/[C@H]1OC(C)(C)C[C@@]2(CO2)[C@@H]1O)=C\C[C@@H]1O[C@H](C)[C@H](NC(=O)/C=C\[C@H](C)O)C[C@@H]1C | 7.4 | 9.7 | 0.54 |  |  | 
CC(=O)O[C@@H](C)/C=C\C(=O)N[C@@H]1C[C@H](C)[C@H](C/C=C(C)/C=C/[C@H]2O[C@](C)(O)C[C@@]3(CO3)[C@@H]2O)O[C@@H]1C |  |  |  | 2 | 50 | GI50 (MCF7): 1.1 nM
CC(=O)O[C@@H](C)/C=C\C(=O)N[C@H]1C[C@H](C)[C@H](C/C=C(C)/C=C/[C@H]2O[C@](C)(O)C[C@@]3(CO3)[C@@H]2O)O[C@@H]1C |  |  |  |  | 1000 | 
CC(/C=C/[C@H]1OC(C)(C)C[C@@]2(CO2)[C@@H]1O)=C\C[C@@H]1O[C@H](C)[C@H](NC(=O)/C=C\[C@H](C)OC(=O)N2CCSCC2)C[C@@H]1C | 0.52 | 0.48 | 0.51 |  |  | 

— ChEMBL document CHEMBL5149986, “Spliceostatins and Derivatives: Chemical Syntheses and Biological Properties of Potent Splicing Inhibitors” (J Nat Prod, 2021)
